Measured values as given in ChEMBL document CHEMBL2057065, “The 3-Deoxy Analogue of α-GalCer: Disclosing the Role of the 4-Hydroxyl Group for CD1d-Mediated NKT Cell Activation” (ACS Med Chem Lett, 2011).
Activity calls are given as the source filed them.

What was measured:
[1] = species on record: Mus musculus; assay: Immunostimulatory activity in mouse DN32.D3 NKT hybridoma cells assessed as IL-2 production after 16 hrs by ELISA; format: functional
[2] = system: Splenocyte; assay: Immunostimulatory activity in mouse splenocytes assessed as IFNgamma production at 8 ng/ml after 72 hrs by ELISA; format: functional, cell-based
[3] = system: Splenocyte; assay: Immunostimulatory activity in mouse splenocytes assessed as IL4 production at 8 ng/ml after 72 hrs by ELISA; format: functional, cell-based

Measured: Activity

CCCCCCCCCCCCCCCCCCCCCCCCCC(=O)N[C@@H](CO[C@H]1O[C@H](CO)[C@H](O)[C@H](O)[C@H]1O)[C@H](O)CCCCCCCCCCCCCCC
active: all assays above

CCCCCCCCCCCCCCCCCCCCCCCCCC(=O)N[C@@H](CO[C@H]1O[C@H](CO)[C@H](O)[C@H](O)[C@H]1O)[C@H](O)[C@H](O)CCCCCCCCCCCCCC
active: all assays above

CCCCCCCCCCCCCCCCCCCCCCCCCC(=O)N[C@@H](CO[C@H]1O[C@H](CO)[C@H](O)[C@H](O)[C@H]1O)C[C@H](O)CCCCCCCCCCCCCC
active: all assays above
